Experimental data taken from ChEMBL document CHEMBL1811895, “Regioselective synthesis of water-soluble monophosphate derivatives of combretastatin A-1” (J Nat Prod, 2011).

Key:
NCI-H460 = experiment: Cytotoxicity against human NCI-H460 cells by SRB assay; type: functional
[1] = Inhibition of tubulin polymerization in bovine brain after 20 mins by spectrophotometry; parameters: species or system Bos taurus
DU-145 = experiment: Cytotoxicity against human DU145 cells by SRB assay; type: functional
SK-OV-3 = experiment: Cytotoxicity against human SKOV3 cells by SRB assay; type: functional

SMILES | GI50 (NCI-H460) [nM] | IC50 [1] [nM] | GI50 (DU-145) [nM] | GI50 (SK-OV-3) [nM]
COc1ccc(/C=C\c2cc(OC)c(OC)c(OC)c2)c(OP(=O)(O)O)c1O | 3.56 | > 40000 | 2.77 | 1.64
COc1ccc(/C=C/c2cc(OC)c(OC)c(OC)c2)c(OP(=O)(O)O)c1O | 1550 | – | 2130 | 465
COc1cc(/C=C\c2ccc(OC)c(OP(=O)(O)O)c2O)cc(OC)c1OC | 33.4 | > 40000 | 15.5 | 2.6
COc1cc(/C=C/c2ccc(OC)c(OP(=O)(O)O)c2O)cc(OC)c1OC | 336 | – | 520 | 681
COc1cc(/C=C\c2ccc(OC)c(OP(=O)(O)O)c2OP(=O)(O)O)cc(OC)c1OC | 13.3 | > 40000 | 2.87 | 1.03
COc1ccc(/C=C/c2cc(OC)c(OC)c(OC)c2)c(O)c1O | 1320 | 11000 | 2140 | 2270
COc1ccc(/C=C\c2cc(OC)c(OC)c(OC)c2)c(O)c1O [COMBRETASTATIN A-1] | 15.3 | 1900 | 32.6 | 38.4
